Assay results from patent publication US9549942B2, “Composition for preventing or treating degenerative brain diseases including compound downregulating expression of BACE1 proteins” (RESEARCH & BUSINESS FOUNDATION SUNGKYUNKWAN UNIVERSITY, priority 2013, dated 2017).

How the values were obtained:
BACE1 proteins [1] = assay: BACE1 protein expression under oxidative stress (HNE) conditions of brain nerve cells (Western blot); type: cell-based, human; conditions: SH-SY5Y cells pretreated 24 hours at 1, 5 and 10 μM, then HNE
Experimental: In order to determine an influence of chlorhexidine and thioguanosine of the present disclosure on an amount of BACE1 expression under oxidative stress conditions of brain nerve cells, the following experiment was performed. Brain nerve cells, SH-SY5Y cells, were pretreated with chlorhexidine and thioguanosine at 1 μM, 5 μM, and 10 μM for 24 hours. Then, an oxidative stress substance HNE (4-hydroxynonenal) was applied to the SH-SY5Y cells, and a change in the amount of BACE1 proteins was determined by Western blot. A change in an amount of BACE1 mRNA was determined by real-time PCR.

BACE1 mRNA = BACE1 mRNA under oxidative stress (HNE) conditions of brain nerve cells (real-time PCR); type: cell-based, human; conditions: SH-SY5Y cells pretreated 24 hours at 1, 5 and 10 μM, then HNE
Experimental: In order to determine an influence of chlorhexidine and thioguanosine of the present disclosure on an amount of BACE1 expression under oxidative stress conditions of brain nerve cells, the following experiment was performed.
Brain nerve cells, SH-SY5Y cells, were pretreated with chlorhexidine and thioguanosine at 1 μM, 5 μM, and 10 μM for 24 hours. Then, an oxidative stress substance HNE (4-hydroxynonenal) was applied to the SH-SY5Y cells, and a change in the amount of BACE1 proteins was determined by Western blot. A change in an amount of BACE1 mRNA was determined by real-time PCR.
In this regard, in FIGS. 9 and 10, asterisks (**) indicate a significant (p≦0.01) increase of BACE1 mRNA expression relative to control. Similarly, number signs (##) indicate a significant (p≦0.01) decrease, and number signs (###) indicate a significant (p≦0.001) decrease in BACE1 mRNA expression relative to oxidative stress conditions.

3×Tg-AD mice = assay: Morris water maze test, learning ability, Alzheimer's dementia animal model; type: in vivo, mouse; conditions: 25 mg/kg orally every day for 4 weeks, on the third and fourth days
Experimental: As an Alzheimer's dementia animal model, 3×Tg-AD mice were used. The 3×Tg-AD mouse is a mouse having overexpressed presenilin, amyloid precursor protein (APP), and Tau genes, which are frequently found in Alzheimer's dementia. The 3×Tg-AD mouse is an animal model that is widely used for research on Alzheimer's dementia (Oddo S. et al, 2003, Neuron, 39, 409-421). 25 mg/kg of chlorhexidine was orally administered every day for 4 weeks; and 0.1 mg/kg and 0.5 mg/kg of thioguanosine were orally administered every day for 8 weeks to 6-month old 3×Tg-AD mice. A Morris water maze test was used to evaluate the effects of chlorhexidine and thioguanosine administration on the mice. […] In this configuration, a treated or control subject was placed into the water with its head towards a water tank wall surface, and a time was recorded for the length of time taken for finding the escape platform. […] After 15 minutes, the mouse was placed into the water again, a subsequent time taken for finding the escape platform was recorded, and a change in the learning ability was determined. This procedure was performed over four days, and the result of change in learning ability was measured. […]

BACE1 proteins [2] = assay: BACE1 protein expression in brain of Alzheimer's dementia animal model (Western blot); type: in vivo; conditions: 3×Tg-AD mouse, 25 mg/kg orally every day for 4 weeks
Experimental: (§1) As an Alzheimer's dementia animal model, 3×Tg-AD mice were used. The 3×Tg-AD mouse is a mouse having overexpressed presenilin, amyloid precursor protein (APP), and Tau genes, which are frequently found in Alzheimer's dementia. The 3×Tg-AD mouse is an animal model that is widely used for research on Alzheimer's dementia (Oddo S. et al, 2003, Neuron, 39, 409-421). 25 mg/kg of chlorhexidine was orally administered every day for 4 weeks; and 0.1 mg/kg and 0.5 mg/kg of thioguanosine were orally administered every day for 8 weeks to 6-month old 3×Tg-AD mice. A Morris water maze test was used to evaluate the effects of chlorhexidine and thioguanosine administration on the mice.
From the 3×Tg-AD mouse to which chlorhexidine was administered in Example 4a brain was extracted. The extracted brain was lysed using a tissue lysis buffer and RNA was extracted using Trizol. The amount of BACE1 expression was determined by Western blot and real-time PCR. FIGS. 18 and 19 show the results.

Aβ = assay: Generation of Aβ in brain cortex, immuno staining; type: in vivo; conditions: 3×Tg-AD mouse, 25 mg/kg orally every day for 4 weeks
Experimental: as §1
From the 3×Tg-AD mouse to which chlorhexidine was administered in Example 4a brain was extracted. A […] frozen section was prepared from the extracted brain using a microtome. Then, generation of Aβ was measured using immuno staining or a human amyloid 13 (1-40) assay kit (IBL) and a human amyloid β (1-42) assay kit (IBL). FIGS. 20 and 21 show the results.

BACE1 promoter = BACE1 promoter activity, BACE1 promoter-luciferase vector, Dual-Luciferase assay; type: cell-based; conditions: Homo sapiens; SH-SY5Y transfected with BACE1 promoter-luciferase vector, 10 μM for 24 hours; read-out: decrease of BACE1 promoter activity
Experimental: A BACE1 promoter-luciferase vector was transfected to brain nerve cells (SH-SY5Y). […] A change in a BACE1 promoter activity was measured using a Dual-Luciferase assay kit.

SMILES: [H]/N=C(\N/C(=N/[H])NCCCCCCNC(=N)NC(=N)Nc1ccc(Cl)cc1)Nc1ccc(Cl)cc1 [chlorhexidine, N′,N′″″-hexane-1,6-diylbis[N-(4-chlorophenyl)(imidodicarbonimidic diamide)]]
- increase in the amount of expression of BACE1 proteins due to oxidative stress (BACE1 proteins [1]): decreased at 5 μM and 10 μM
- increase in the amount of BACE1 mRNA due to oxidative stress (BACE1 mRNA): decreased at 1 μM and at 5 μM
- learning ability for finding the platform (Morris water maze) (3×Tg-AD mice): faster learning ability for finding the platform than a control group
- expression of BACE1 proteins in brain (BACE1 proteins [2]): lower expression of BACE1 proteins than that of the control group
- generation of Aβ in cortex part of brain (Aβ): lower generation of Aβ than that of the control group
- inhibition at 10 µM (BACE1 promoter): ≥ 50%
